# Legend:
# Type in all cases: cell-based
# [1] = Plating efficiency (colony-forming ability) of normal human fibroblasts; conditions: hfl-1 cells, 24 hour incubation with drug, replated, colonies counted after 20 days, read-out: concentration of the drug causing 50% inhibition in plating efficiency
# Procedure: HFL-1 cells (normal, human diploid lung fibroblasts) purchased from ATCC were plated after first passage at low density (2.0 x 10^5cells) per well (6 well dishes) in one ml of growth medium (DMEM completed with 10% fetal bovine serum and pen/strep). Twenty-four hours later, (E)-4-fluorostyryl-4-chlorobenzylsulfone was added to each well at the following final concentrations; 0 µM, 2.5. µM, 5.0 µM, 25 µM, 50 µM, and 75 µM. After a 24 hour incubation period, the wells were washed 3x with 5 ml normal growth medium and each well was trypsinized and cell counts were determined. To determine colony-forming ability, the cells from each treatment were then serial diluted and replated into 100mm dishes such that each group was split into 3 replating groups consisting of 10, 100, 200 cells per plate. The groups were plated in triplicate. The cells were incubated for 20 days under normal growth conditions and colonies were counted after staining with modified Wright stain (Sigma). The number of colonies from each plate in triplicate were determined and the average for each group was plotted. The concentration of the drug causing 50% inhibition in plating efficiency was calculated and found to be 70 µM.
# HFL-1 cells = test: Protection of normal human fibroblasts from anticancer agent cytotoxicity (protection ratio, Trypan blue exclusion); conditions: 2.0 µM sulfone 24 hour preincubation, viable cells 96 hours after cytotoxic agent
# Procedure: HFL-1 cells were plated at a cell density of 1.0 x 10^5 in 1 ml of medium. Twenty-four hours following plating, 2.0 µM of (E)-4-fluorostyryl-4-chlorobenzylsulfone was added to the medium. Following a 24 hour preincubation with the styryl sulfone, the various cytotoxic agents listed in Table 6 were added to the cells, at the concentrations given in Table 6. the number of viable cells was determined by Trypan blue exclusion using a hematocytometer 96 hours after exposure to cytotoxic agent. The "Protection Ratio" is the number of viable cells following treatment with (E)-4-fluorostyryl-4-chlorobenzylsulfone and cytotoxic agent, divided by the number of viable cells remaining after treatment with cytotoxic agent alone. A protection ratio of 2 or more is considered highly significant, while is protection ratio of 1.5-2 is considered less significant. […] Table 6: Protective Effect of (E)-4-Fluorostyryl-4-Chlorobenzylsulfone on HFL-1 Cells Treated with Cytotoxic Drugs
# Normal human HFL-1 cells = test: Cytoprotection assay against paclitaxel; design: key: +: A compound was deemed to be active if the number of viable cells following the combination treatment was higher than the number of cells after treatment with paclitaxel alone; conditions: 2.0 or 10 µM sulfone; paclitaxel (250 nM) at time zero or 24 hours later; viable cells after 96 hours of paclitaxel
# Procedure: The cytoprotective activity of the same styryl benzylsulfones was determined as follows. Normal human HFL-1 cells were plated at a cell density of 1.0 x 10^5 cells per well in six culture plates. Styryl benzylsulfone was added 24 hours later at a final concentration of either 2.0 or 10 µM. The time of styryl sulfone addition was designated as time zero. Paclitaxel (250 nM) was added at either time zero, or 24 hours after time zero. The total number of viable cells was determined, as described above, after 96 hours of paclitaxel treatment. A compound was deemed to be active if the number of viable cells following the combination treatment was higher than the number of cells after treatment with paclitaxel alone. Table 7: Antitumor and Cytoprotective Effect of Styryl Sulfones
structure (smiles),measurement,setting,value
"O=S(=O)(/C=C/c1ccc(F)cc1)Cc1ccc(Cl)cc1 [Example 7, (E)-4-fluorostyryl-4-chlorobenzyl sulfone]",CC50 at 24 h,[1],70 µM
same,Protection Ratio,HFL-1 cells; 5-fluorouracil 20 µM (DNA antimetabolite),1.3
same,Protection Ratio,HFL-1 cells; camptothecin 0.5 µM (topoisomerase I inhibitor),2.1
same,Protection Ratio,HFL-1 cells; cisplatin 5.0 µM (alkylating agent),1.3
same,Protection Ratio,HFL-1 cells; doxorubicin 0.4 µM (topoisomerase II inhibitor),1.5
same,Protection Ratio,HFL-1 cells; etoposide 3.0 µM (topoisomerase II inhibitor),3.5
same,Protection Ratio,HFL-1 cells; mitoxantrone 0.3 µM (topoisomerase II inhibitor),2.0
same,Protection Ratio,HFL-1 cells; paclitaxel 0.25 µM (antimitotic),2.5
same,Protection Ratio,HFL-1 cells; vincristine 0.25 µM (antimitotic),3.0
same,Cytoprotection,Normal human HFL-1 cells,+
"O=S(=O)(/C=C/c1ccc(Cl)cc1)Cc1ccc(Cl)cc1 [Example 8, (E)-4-chlorostyryl-4-chlorobenzyl sulfones]",Cytoprotection,Normal human HFL-1 cells,+
"O=S(=O)(/C=C/c1ccc(F)cc1Cl)Cc1ccc(Cl)cc1 [Example 9, (E)-2-chbro-4-fluorostryryl4-chlorobenzl sulfone]",Cytoprotection,Normal human HFL-1 cells,+
"O=C(O)c1ccc(/C=C/S(=O)(=O)Cc2ccc(Cl)cc2)cc1 [Example 10, (E)-4-carboxystyryl-chlorobenzyl sulfone]",Cytoprotection,Normal human HFL-1 cells,+
"O=S(=O)(/C=C/c1ccc(F)cc1)Cc1ccc(Cl)cc1Cl [Example 11, (E)-4-fluorostyryl-2,4-dichlorobenzyl sulfone]",Cytoprotection,Normal human HFL-1 cells,+
"O=C(C(=Cc1ccc(F)cc1)S(=O)(=O)c1ccccc1)c1ccccc1 [Example 12, 2-(phenylsulfonyl)-1-phenyl-3-(4-fluorophenyl)-2-propen-1-one]",Cytoprotection,Normal human HFL-1 cells,+

# Reference: patent publication EP1223923B1, “UNSATURATED ARYL SULFONES FOR PROTECTING NORMAL CELLS FROM CYTOTOXICITY OF CHEMOTHERAPEUTIC AGENTS” (Temple University - Of The Commonwealth System of Higher …, priority 1999, dated 2001)
